Measured values from patent US20060013906A1, “Anti-helicobacter activity of celery seed extract” (priority 2002, published 2006).
In brackets after ≈: the same amount, converted by molar mass.

System: H. pylori (strain 3339)
Assay: Broth dilution antimicrobial test, H. pylori strain 3339
Format: cell-based, Helicobacter pylori
Conditions: compounds from subfractions 6 and 10

Row | Molecule | MIC [µg/mL] | MBC [µg/mL]
1 | CCCCC1OC(=O)c2ccccc21 (stereo not shown) [3-n Butyl phthalide, 3-n-butyl phthalide] | 15.6 (≈ 82.1 µM) | –
2 | CCCCC/C=C/C/C=C/CCCCCCCC(=O)O [Linoleic acid, cis, cis - 9,12- Octadecadienoic acid] | 62.5 (≈ 223 µM) | > 125
3 | CCCCC1OC(=O)C2=C1CCC=C2 (stereo not shown) [sedanenolide, 3-n-butyl 4,5-dihydrolphthalide] | 31.2 (≈ 163 µM) | 62.5 (≈ 325 µM)
4 | α and β-Eudesmol | 15.6 | 125
